Results on 15 compounds are retold here after ChEMBL document CHEMBL3351223, “Single Diastereomer of a Macrolactam Core Binds Specifically to Myeloid Cell Leukemia 1 (MCL1)” (ACS Med Chem Lett, 2014).

The term ΔTm denotes the shift of the melting midpoint relative to a reference. In general, IC50 refers to the concentration that gives 50% inhibition.

Experiment [1] concerns the target T1, Induced myeloid leukemia cell differentiation protein Mcl-1 (Homo sapiens, UniProt Q07820). The conditions noted are these: 25 uM.
Experiment [2] concerns the target T1, Induced myeloid leukemia cell differentiation protein Mcl-1. The note with it: 100 uM.
Experiment [3] has the same target. The conditions noted are these: 800 uM.
The target is the same in experiment [4].
Description: Binding affinity to human MCL1 (173 to 329 aa) using TAMRA-labeled Noxa peptide preincubated for 30 mins by fluorescent polarization assay
Experiment [5] has the same target. The source holds these as a separate data set.
Description: Binding affinity to human MCL1 (173 to 329 aa) at 250 uM by differential scanning calorimetry assay
Experiment [6] has the same target. This is another data set of the same source.
For experiment [7] the target is unchanged. The source holds these as a separate data set.

Molecules are shown by their SMILES. The source made the active and inactive calls. The calls are words filed in the database; no cut-off is given here. A value given as a limit tells only on which side of the number the result lay.

T1 sequence (Q07820 whole entry): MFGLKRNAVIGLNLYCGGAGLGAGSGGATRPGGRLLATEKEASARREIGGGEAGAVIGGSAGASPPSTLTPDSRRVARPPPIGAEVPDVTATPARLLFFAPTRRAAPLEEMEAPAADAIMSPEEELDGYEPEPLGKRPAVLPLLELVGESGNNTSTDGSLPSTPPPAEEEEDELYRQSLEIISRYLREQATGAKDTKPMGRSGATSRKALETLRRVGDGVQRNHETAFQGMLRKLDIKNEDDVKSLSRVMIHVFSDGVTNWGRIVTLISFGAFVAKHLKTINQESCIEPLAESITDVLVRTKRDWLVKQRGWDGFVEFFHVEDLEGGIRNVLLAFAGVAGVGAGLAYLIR

In the case of `C[C@@H]1CN([C@@H](C)CO)C(=O)c2cccc(NS(=O)(=O)c3ccc(F)cc3)c2O[C@@H]1CN(C)C(=O)Nc1ccc(C(F)(F)F)cc1`, the thermal shift (ΔTm) in experiment [1] came to 0.6 °C; in experiment [2], 1.9 °C. Further, the result in experiment [3] was inactive.
Turning to `C[C@@H]1CN([C@@H](C)C(=O)O)C(=O)c2cccc(NS(=O)(=O)Cc3ccccc3)c2O[C@@H]1CN(C)C(=O)Nc1ccc(C(F)(F)F)cc1`, the half-maximal inhibitory concentration (IC50) in experiment [4] is greater than 50 µM. Moreover, in experiment [5], the ΔTm was 1.4 °C.
Taken in the same sequence, the figures for `C[C@@H]1CN([C@@H](C)C(=O)O)C(=O)c2cccc(NS(=O)(=O)c3ccc(F)cc3)c2O[C@@H]1CN(C)C(=O)Nc1cccc2ccccc12` were greater than 50 µM and -0.1 °C.
`C[C@@H]1CN([C@@H](C)C(=O)O)C(=O)c2cccc(NS(=O)(=O)c3ccc(F)cc3)c2O[C@@H]1CN(C)C(=O)Nc1cccc(C(F)(F)F)c1`: in experiment [4], the 50% inhibitory concentration (IC50) was greater than 25 µM. For the same compound, the ΔTm in experiment [5] stood at 0.2 °C.
Take `CN(C)C(=O)Nc1ccc(C(F)(F)F)cc1`: the result in experiment [6] and in experiment [7] was inactive.
Consider `C[C@@H]1CN([C@@H](C)C(=O)O)C(=O)c2cccc(NS(=O)(=O)c3cccc(F)c3)c2O[C@@H]1CN(C)C(=O)Nc1ccc(C(F)(F)F)cc1`, for which, in experiment [4], the half-maximal inhibitory concentration (IC50) is 4.1 µM. Also, in experiment [5], the shift in melting temperature (ΔTm) is 3.4 °C.
The corresponding values for `C[C@@H]1CN([C@@H](C)C(=O)O)C(=O)c2cccc(NS(=O)(=O)c3ccccc3)c2O[C@@H]1CN(C)C(=O)Nc1ccc(C(F)(F)F)cc1` are 10 µM and 2.8 °C.
`C[C@@H]1CN([C@@H](C)C(=O)O)C(=O)c2cccc(NS(=O)(=O)c3ccc(F)cc3)c2O[C@@H]1CN(C)C(=O)Nc1ccccc1C(F)(F)F`: the IC50 in experiment [4] was greater than 50 µM. Also, in experiment [5], the shift in melting temperature (ΔTm) was 0.2 °C.
As to `C[C@@H]1CN([C@@H](C)C(=O)O)C(=O)c2cccc(NS(=O)(=O)c3ccccc3F)c2O[C@@H]1CN(C)C(=O)Nc1ccc(C(F)(F)F)cc1`, the IC50 in experiment [4] was 21.3 µM. The ΔTm in experiment [5] stood at 1.9 °C.
The corresponding values for `C[C@@H]1CN([C@@H](C)C(=O)O)C(=O)c2cccc(NS(=O)(=O)CCc3ccccc3)c2O[C@@H]1CN(C)C(=O)Nc1ccc(C(F)(F)F)cc1` are greater than 50 µM and 0.4 °C.
The corresponding values for `COc1ccc(NC(=O)N(C)C[C@H]2Oc3c(NS(=O)(=O)c4ccc(F)cc4)cccc3C(=O)N([C@@H](C)C(=O)O)C[C@H]2C)cc1` are greater than 50 µM and 0.2 °C.
The corresponding values for `C[C@@H]1CN([C@@H](C)C(=O)O)C(=O)c2cccc(NS(=O)(=O)c3ccc(F)cc3)c2O[C@@H]1CN(C)C(=O)Nc1ccccc1` are greater than 50 µM and 0.2 °C.
`C[C@@H]1CN([C@@H](C)C(=O)O)C(=O)c2cccc(NS(=O)(=O)c3ccc(F)cc3)c2O[C@@H]1CN(C)C(=O)Nc1ccc2ccccc2c1` returned an IC50 in experiment [4] greater than 25 µM. Besides, in experiment [5], the ΔTm was determined as 0.8 °C.
In the case of `C[C@@H]1CN([C@@H](C)CO)C(=O)c2cccc(NS(=O)(=O)c3ccccc3)c2O[C@@H]1CN(C)C(=O)Nc1ccc(C(F)(F)F)cc1`, the ΔTm in experiment [1] amounted to 0.3 °C.
In the case of `NS(=O)(=O)c1ccc(F)cc1`, the result in experiment [6] and in experiment [7] was inactive.
